Test system: patients with postpartum depression (PPD)
Experiment: Open-label clinical trial of inhaled 5-MeO-DMT in postpartum depression (one patient, IDR 6 mg then 12 mg)
Protocol: The single-arm, open-label clinical trial will involve 15 adult female patients with clinically diagnosed postpartum depression (PPD).
The second dose (12 mg) will only be administered if: • a. […] The 6 mg dose was safe and well-tolerated according to the investigator, • c. Any psychoactive effects (PsE) of the prior dose have subsided, and • d. Pre-dose vital parameters and forced expiratory volume in one second (FEV1) are in normal range, or if outside of the normal range, are not clinically significant according to the investigator. • 3. Similarly, a third dose (18 mg) will only be administered if: • a. […] The 12 mg dose was safe and well-tolerated according to the investigator, and • c. Any PsE of the prior dose have subsided, and • d. Pre-dose vital parameters and forced expiratory volume in one second (FEV1) are in normal range, or if outside of the normal range, are not clinically significant according to the investigator.
The patients will be assessed for a peak psychedelic experience (based on a patient-scored visual analogue scale, the PE scale), sedation, and other endpoints after dosing. Follow-up visits are planned for Day 1, and Day 7 after the dosing day.

COc1ccc2[nH]cc(CCN(C)C)c2c1 [5-MeO-DMT]
MADRS apparent sadness improvement (2 hr): 5 | MADRS apparent sadness score (2 hr): 0 | MADRS concentration difficulties improvement (2 hr): 0 | MADRS concentration difficulties score (2 hr): 0 | MADRS inability to feel improvement (2 hr): 3 | MADRS inability to feel score (2 hr): 0 | MADRS inner tension improvement (2 hr): 5 | MADRS inner tension score (2 hr): 0 | MADRS lassitude improvement (2 hr): 3 | MADRS lassitude score (2 hr): 0 | MADRS pessimistic thoughts improvement (2 hr): 4 | MADRS pessimistic thoughts score (2 hr): 0 | MADRS reduced appetite improvement (2 hr): 0 | MADRS reduced appetite score (2 hr): 0 | MADRS reduced sleep improvement (2 hr): 0 | MADRS reduced sleep score (2 hr): 5 | MADRS reported sadness improvement (2 hr): 4 | MADRS reported sadness score (2 hr): 0 | MADRS suicidal thoughts improvement (2 hr): 0 | MADRS suicidal thoughts score (2 hr): 0 | adverse events (abdominal pain, headache) (Day 0): mild, short-lasting and resolved spontaneously | BPRS anxiety improvement (Day 1): 6 | BPRS anxiety score (Day 1): 1 | BPRS blunted affect improvement (Day 1): 0 | BPRS blunted affect score (Day 1): 1 | BPRS conceptual disorganization improvement (Day 1): 0 | BPRS conceptual disorganization score (Day 1): 1 | BPRS depressive mood improvement (Day 1): 5 | BPRS depressive mood score (Day 1): 1 | BPRS disorientation improvement (Day 1): 0 | BPRS disorientation score (Day 1): 1 | BPRS emotional withdrawal improvement (Day 1): 4 | BPRS emotional withdrawal score (Day 1): 1 | BPRS excitement improvement (Day 1): 1 | BPRS excitement score (Day 1): 1 | BPRS grandiosity improvement (Day 1): 0 | BPRS grandiosity score (Day 1): 1 | BPRS guilt feelings improvement (Day 1): 5 | BPRS guilt feelings score (Day 1): 1 | BPRS hallucinatory behaviour improvement (Day 1): 0 | BPRS hallucinatory behaviour score (Day 1): 1 | BPRS hostility improvement (Day 1): 0 | BPRS hostility score (Day 1): 1 | BPRS mannerisms and posturing improvement (Day 1): 0 | BPRS mannerisms and posturing score (Day 1): 1 | BPRS motor retardation improvement (Day 1): 0 | BPRS motor retardation score (Day 1): 1 | BPRS somatic concern improvement (Day 1): 5 | BPRS somatic concern score (Day 1): 1 | BPRS suspiciousness improvement (Day 1): 0 | BPRS suspiciousness score (Day 1): 1 | BPRS tension score (Day 1): 1 | BPRS uncooperativeness improvement (Day 1): 0 | BPRS uncooperativeness score (Day 1): 1 | BPRS unusual thought content improvement (Day 1): 0 | BPRS unusual thought content score (Day 1): 1 | MADRS apparent sadness improvement (Day 1): 5 | MADRS apparent sadness score (Day 1): 0 | MADRS concentration difficulties improvement (Day 1): 0 | MADRS concentration difficulties score (Day 1): 0 | MADRS inability to feel improvement (Day 1): 3 | MADRS inability to feel score (Day 1): 0 | MADRS inner tension improvement (Day 1): 5 | MADRS inner tension score (Day 1): 0 | MADRS lassitude improvement (Day 1): 3 | MADRS lassitude score (Day 1): 0 | MADRS pessimistic thoughts improvement (Day 1): 4 | MADRS pessimistic thoughts score (Day 1): 0 | MADRS reduced appetite improvement (Day 1): 0 | MADRS reduced appetite score (Day 1): 0 | MADRS reduced sleep improvement (Day 1): 5 | MADRS reduced sleep score (Day 1): 0 | MADRS reported sadness improvement (Day 1): 4 | MADRS reported sadness score (Day 1): 0 | MADRS suicidal thoughts improvement (Day 1): 0 | MADRS suicidal thoughts score (Day 1): 0 | BIMF functional domain Adjustment score (Day 7): 6 | BIMF functional domain Infant Care score (Day 7): 12 | BIMF functional domain Management score (Day 7): 33 | BIMF functional domain Mother-Child Interaction score (Day 7): 17 | BIMF functional domain Psychological Well-being score (Day 7): 53 | BIMF functional domain Self-Care score (Day 7): 13 | BIMF functional domain Social Support score (Day 7): 18 | BIMF item 1 score (I am a good mother) (Day 7): 6 | BIMF item 2 score (I feel rested) (Day 7): 2 | BIMF item 3 score (I am comfortable with the way I've chosen to feed my baby) (Day 7): 6 | BIMF item 4 score (My baby and I understand each other) (Day 7): 5 | BIMF item 5 score (I am able to relax and enjoy time with my baby) (Day 7): 6 | BIMF item 6 score (There are people in my life that I can trust to care for my baby) (Day 7): 6 | BIMF item 8 score (I am getting enough adult interaction) (Day 7): 6 | BIMF item 9 score (I am getting enough encouragement from other people) (Day 7): 6 | BIMF item 10 score (I trust my own feelings (instincts)) (Day 7): 6 | BIMF item 11 score (I take a little time each week to do something for myself) (Day 7): 6 | BIMF item 12 score (I am taking good care of my baby's physical needs) (Day 7): 6 | BIMF item 13 score (I am taking good care of my physical needs) (Day 7): 5 | BIMF item 14 score (I make good descisions about my baby's health and well being) (Day 7): 6 | BIMF item 15 score (My baby and I are getting into a routine) (Day 7): 6 | BIMF item 16 score (I worry about how other people judge me) (Day 7): 5 | BIMF item 17 score (I am able to take care of my baby and my other responsibilites) (Day 7): 5 | BIMF item 18 score (Anxiety or worry often interferes with my mothering ability) (Day 7): 1 | BIMF item 19 score (As time goes on, I am getting better at taking care of my baby) (Day 7): 1 | BIMF item 20 score (I am satisfied with the job I am doing as a new mother) (Day 7): 5 | BPRS anxiety improvement (Day 7): 6 | BPRS anxiety score (Day 7): 1 | BPRS blunted affect improvement (Day 7): 0 | BPRS blunted affect score (Day 7): 1 | BPRS conceptual disorganization improvement (Day 7): 0 | BPRS conceptual disorganization score (Day 7): 1 | BPRS depressive mood improvement (Day 7): 5 | BPRS depressive mood score (Day 7): 1 | BPRS disorientation improvement (Day 7): 0 | BPRS disorientation score (Day 7): 1 | BPRS emotional withdrawal improvement (Day 7): 4 | BPRS emotional withdrawal score (Day 7): 1 | BPRS excitement improvement (Day 7): 1 | BPRS excitement score (Day 7): 1 | BPRS grandiosity improvement (Day 7): 0 | BPRS grandiosity score (Day 7): 1 | BPRS guilt feelings improvement (Day 7): 5 | BPRS guilt feelings score (Day 7): 1 | BPRS hallucinatory behaviour improvement (Day 7): 0 | BPRS hallucinatory behaviour score (Day 7): 1 | BPRS hostility improvement (Day 7): 0 | BPRS hostility score (Day 7): 1 | BPRS mannerisms and posturing improvement (Day 7): 0 | BPRS mannerisms and posturing score (Day 7): 1 | BPRS motor retardation improvement (Day 7): 0 | BPRS motor retardation score (Day 7): 1 | BPRS somatic concern improvement (Day 7): 5 | BPRS somatic concern score (Day 7): 1 | BPRS suspiciousness improvement (Day 7): 0 | BPRS suspiciousness score (Day 7): 1 | BPRS tension improvement (Day 7): 5 | BPRS tension score (Day 7): 1 | BPRS uncooperativeness improvement (Day 7): 0 | BPRS uncooperativeness score (Day 7): 1 | BPRS unusual thought content improvement (Day 7): 0 | BPRS unusual thought content score (Day 7): 1 | MADRS apparent sadness improvement (Day 7): 5 | MADRS apparent sadness score (Day 7): 0 | MADRS concentration difficulties improvement (Day 7): 0 | MADRS concentration difficulties score (Day 7): 0 | MADRS inability to feel improvement (Day 7): 3 | MADRS inability to feel score (Day 7): 0 | MADRS inner tension improvement (Day 7): 4 | MADRS inner tension score (Day 7): 1 | MADRS lassitude improvement (Day 7): 3 | MADRS lassitude score (Day 7): 0 | MADRS pessimistic thoughts improvement (Day 7): 4 | MADRS pessimistic thoughts score (Day 7): 0 | MADRS reduced appetite improvement (Day 7): 0 | MADRS reduced appetite score (Day 7): 0 | MADRS reduced sleep improvement (Day 7): 5 | MADRS reduced sleep score (Day 7): 0 | MADRS reported sadness improvement (Day 7): 4 | MADRS reported sadness score (Day 7): 0 | MADRS suicidal thoughts improvement (Day 7): 0 | MADRS suicidal thoughts score (Day 7): 0 | BIMF Adjustment % improvement (Day 7 vs Day 0): 20.00% | BIMF Adjustment Δ (Day 7 vs Day 0): 1 | BIMF Infant Care % improvement (Day 7 vs Day 0): 0.00% | BIMF Infant Care Δ (Day 7 vs Day 0): 0 | BIMF Management % improvement (Day 7 vs Day 0): 18% | BIMF Management Δ (Day 7 vs Day 0): 5 | BIMF Mother-Child Interaction Δ (Day 7 vs Day 0): 2 | BIMF Psychological Well-being Δ (Day 7 vs Day 0): 9 | BIMF Self-Care % improvement (Day 7 vs Day 0): 44% | BIMF Self-Care Δ (Day 7 vs Day 0): 4 | BIMF Social Support Δ (Day 7 vs Day 0): 1 | BIMF item 1 Δ (Day 7 vs Day 0): 0 | BIMF item 2 Δ (Day 7 vs Day 0): 2 | BIMF item 3 Δ (Day 7 vs Day 0): 0 | BIMF item 4 Δ (Day 7 vs Day 0): 0 | BIMF item 5 Δ (Day 7 vs Day 0): 1 | BIMF item 6 Δ (Day 7 vs Day 0): 0 | BIMF item 7 Δ (Day 7 vs Day 0): 0 | BIMF item 8 Δ (Day 7 vs Day 0): 0 | BIMF item 9 Δ (Day 7 vs Day 0): 1 | BIMF item 10 Δ (Day 7 vs Day 0): 1 | BIMF item 11 Δ (Day 7 vs Day 0): 1 | BIMF item 12 Δ (Day 7 vs Day 0): 0 | BIMF item 13 Δ (Day 7 vs Day 0): 1 | BIMF item 14 Δ (Day 7 vs Day 0): 0 | BIMF item 15 Δ (Day 7 vs Day 0): 1 | BIMF item 16 Δ (Day 7 vs Day 0): 2 | BIMF item 17 Δ (Day 7 vs Day 0): 0 | BIMF item 18 Δ (Day 7 vs Day 0): 1 | BIMF item 19 Δ (Day 7 vs Day 0): 1 | BIMF item 20 Δ (Day 7 vs Day 0): −1 | BIMF total score Δ (Day 7 vs Day 0): 13 | time to clinical remission (after administration): ≤ 2 h | time to clinical response (after administration): ≤ 2 h | BPRS anxiety improvement (discharge): 6 | BPRS anxiety score (discharge): 1 | BPRS blunted affect improvement (discharge): 0 | BPRS blunted affect score (discharge): 1 | BPRS conceptual disorganization improvement (discharge): 0 | BPRS conceptual disorganization score (discharge): 1 | BPRS depressive mood improvement (discharge): 5 | BPRS depressive mood score (discharge): 1 | BPRS disorientation improvement (discharge): 0 | BPRS disorientation score (discharge): 1 | BPRS emotional withdrawal improvement (discharge): 4 | BPRS emotional withdrawal score (discharge): 1 | BPRS excitement improvement (discharge): 1 | BPRS excitement score (discharge): 1 | BPRS grandiosity improvement (discharge): 0 | BPRS grandiosity score (discharge): 1 | BPRS guilt feelings improvement (discharge): 5 | BPRS guilt feelings score (discharge): 1 | BPRS hallucinatory behaviour improvement (discharge): 0 | BPRS hallucinatory behaviour score (discharge): 1 | BPRS hostility improvement (discharge): 0 | BPRS hostility score (discharge): 1 | BPRS mannerisms and posturing improvement (discharge): 0 | BPRS mannerisms and posturing score (discharge): 1 | BPRS motor retardation improvement (discharge): 0 | BPRS motor retardation score (discharge): 1 | BPRS somatic concern improvement (discharge): 5 | BPRS somatic concern score (discharge): 1 | BPRS suspiciousness improvement (discharge): 0 | BPRS suspiciousness score (discharge): 1 | BPRS tension score (discharge): 1 | BPRS uncooperativeness improvement (discharge): 0 | BPRS uncooperativeness score (discharge): 1 | BPRS unusual thought content improvement (discharge): 0 | BPRS unusual thought content score (discharge): 1 | vital parameters (shortly after administration): temporary, clinically non-relevant increase in heart rate and blood pressure

— patent publication US20250170099A1, “TREATMENT OF POSTNATAL DEPRESSION” (GH RESEARCH IRELAND LIMITED, priority 2022, published 2025)
